These results are taken from article PMC7397262, “Design, Synthesis and Biological Evaluation of Novel Triazole N-acylhydrazone Hybrids for Alzheimer’s Disease” (Molecules, 2020).

Data set [1] deals with SH-SY5Y cells. Description: Toxicity in neuronal SH-SY5Y cells, MTT assay. Format: cell-based. Particulars: for toxic effects: 24 h, at 80 μM; for IC50: Homo sapiens, read-out: IC50 (concentration resulting in 50% inhibition of neuronal viability), 24 h, 2.5-80 μM. On the procedure:
[…]. Human neuronal SH-SY5Y cells were routinely grown in Dulbecco’s modified Eagle’s Medium supplemented with 10% fetal bovine serum, 2 mM L-glutamine, 50 U/mL penicillin and 50 µg/mL streptomycin at 37 °C in a humidified incubator with 5 % CO2.
SH-SY5Y cells were seeded in a 96-well plate at 2 × 10^4 cells/well, incubated for 24 h and then treated with the compounds for 24 h. Cell viability, in terms of mitochondrial metabolic function, was evaluated by 3-(4,5-dimethylthiazol-2-yl)-2,5-diphenyltetrazolium bromide (MTT) test, as previously described.
On the technique in general: Tetrazolium dyes change colour on reduction, which living cells bring about.

The subject of data set [2] is SH-SY5Y cells. Description: ROS formation induced by t-BOOH in SH-SY5Y cells, H2DCF-DA probe. The class given is cell-based, human. Also noted: key to Direct Antioxidant Activity in SH-SY5Y Cells (percentage inhibition of ROS formation induced by t-BOOH): In: inactive. Particulars: for inhibition at 10 µM: Homo sapiens, SH-SY5Y, chronic treatment 24 h with compound 10 μM, then t-BOOH 100 μM for 30 min, read-out: Indirect Antioxidant Activity in SH-SY5Y Cells (percentage inhibition of ROS formation induced by t-BOOH); for Direct Antioxidant Activity in SH-SY5Y Cells (percentage inhibition of ROS formation induced by t-BOOH): simultaneous treatment 30 min, compound 10 µM and t-BOOH 100 μM. On the procedure: In parallel, we evaluated the antioxidant activity of the compounds not associated with toxicity (Figure 5) against the ROS formation induced by t-BOOH in SH-SY5Y cells. To appraise the direct and indirect antioxidant activity, the SH-SY5Y cells were simultaneously treated for 30 min with 3a, 3b and 3e (10 µM) and t-BOOH (100 µM) or chronically treated for 24 h (the time necessary to activate the endogenous antioxidant system) with 3a, 3b and 3e (10 µM) and then exposed to t-BOOH (100 µM) for 30 min, respectively. Then, the intracellular ROS formation was detected by using the fluorescent probe 2′,7′-dichlorodihydrofluorescein diacetate (H2DCF-DA).
(§1) Human neuronal SH-SY5Y cells were routinely grown in Dulbecco’s modified Eagle’s Medium supplemented with 10% fetal bovine serum, 2 mM L-glutamine, 50 U/mL penicillin and 50 µg/mL streptomycin at 37 °C in a humidified incubator with 5 % CO2.
SH-SY5Y cells were seeded in a 96-well plate at 2 × 10^4 cells/well, incubated for 24 h, and then treated with compounds for 24 h before or during the treatment of 30 min with t-BOOH. ROS formation was evaluated by using the fluorescent probe H2DCF-DA, as previously described.

Data set [3] has as its system SH-SY5Y cells. Description: Intracellular GSH levels in SH-SY5Y cells, MCB assay. Format: cell-based, human. Particulars: 24 h, 2.5–10 μM. On the procedure:
Among the endogenous antioxidants in the central nervous system, glutathione (GSH) plays an important role to maintain the redox balance by directly interacting with ROS formed during the physiological metabolic processes. […] We therefore evaluated the ability of compounds 3a, 3b and 3e to modulate the intracellular GSH levels in SH-SY5Y cells, after 24 h of treatment using the fluorescent probe monochlorobimane (MCB).
as §1
SH-SY5Y cells were seeded in a black 96-well plate at 2 × 10^4 cells/well, incubated for 24 h and then treated with the compounds for 24 h. GSH levels were evaluated by using monochlorobimane, as previously described

The target in another data set is T1, EeAChE (Electrophorus electricus, UniProt O42275).
T1 construct: purified from Electrophorus electricus; purchased Sigma-Aldrich type V-S; host or cells: Electrophorus electricus (natural source)
T1 sequence (O42275 24-633): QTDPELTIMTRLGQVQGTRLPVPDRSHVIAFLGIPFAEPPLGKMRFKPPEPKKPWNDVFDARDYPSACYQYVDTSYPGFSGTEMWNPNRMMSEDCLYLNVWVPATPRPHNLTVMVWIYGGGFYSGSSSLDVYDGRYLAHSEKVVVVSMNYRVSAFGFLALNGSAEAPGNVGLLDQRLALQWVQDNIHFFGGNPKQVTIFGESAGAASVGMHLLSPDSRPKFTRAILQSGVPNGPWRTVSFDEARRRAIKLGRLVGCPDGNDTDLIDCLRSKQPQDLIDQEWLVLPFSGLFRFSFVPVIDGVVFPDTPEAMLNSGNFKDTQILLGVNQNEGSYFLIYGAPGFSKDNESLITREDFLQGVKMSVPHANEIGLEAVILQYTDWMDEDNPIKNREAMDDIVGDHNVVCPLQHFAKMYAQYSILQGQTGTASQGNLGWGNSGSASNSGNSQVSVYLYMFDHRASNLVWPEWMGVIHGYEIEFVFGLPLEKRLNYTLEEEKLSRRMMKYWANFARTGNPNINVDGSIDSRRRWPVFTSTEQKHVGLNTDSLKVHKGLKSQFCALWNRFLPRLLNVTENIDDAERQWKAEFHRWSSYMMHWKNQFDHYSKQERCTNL
Description: AChE inhibition, modified Ellman kinetic assay. The class given is biochemical. On the procedure:
(§2) For in vitro evaluation of inhibition of EeAChE (EC3.1.1.7, type V-S, purified from Electrophorus electricus) and eqBuChE (EC 3.1.1.8, purified from equine serum, both from Sigma-Aldrich), the kinetic assay was performed according to the Ellman method modified using 96-well plates as previously described. […]. Progression curves were acquired using the Softmax PRO 5.0 software (Molecular Devices) from which the maximum hydrolysis velocity was calculated and the analysis performed with the Prism 5 software (GraphPad Inc., La Jolla, CA, USA). […]. The solvent had no detectable effect at the highest concentration used (0.2% v/v).
Background: DTNB colorimetry detects thiols as they appear.

A further data set addresses T2, eqBuChE (Equus caballus, UniProt P81908).
T2 construct: purified from equine serum; purchased Sigma-Aldrich; host or cells: equine serum (natural source)
Kind of data set: BuChE inhibition, modified Ellman kinetic assay. The class given is biochemical. On the procedure:
as §2

The subject of data set [4] is SH-SY5Y cells. Kind of data set: Neuroprotective activity against Aβ42 oligomers in SH-SY5Y cells, MTT assay. The class given is cell-based, human. Particulars: 3e 5 µM with OAβ42 10 µM, 4 h. On the procedure:
Given the best antioxidant profile of compound 3e we also evaluated its ability to protect the SH-SY5Y cells against the neurotoxicity elicited by Aβ42 peptide oligomers (OAβ42), soluble aggregates of Aβ peptides involved in the pathogenesis of AD.
as §1
Aβ42 peptide (AnaSpec, Fremont, CA, USA) was first dissolved in 1,1,1,3,3,3-hexafluoroisopropanol to 1 mg/mL, sonicated, incubated at room temperature for 24 h, and lyophilised to obtain an unaggregated Aβ42 peptide film that was solubilised with DMSO and stored at −20 °C until use. The aggregation of Aβ42 peptide into oligomers was performed as previously described. SH-SY5Y cells were seeded in a 96-well plate at 3 × 10^4 cells/well, incubated for 24 h, and treated with the compounds for 24 h. The cells were then treated for 4 h with 3e [5 μM] and OAβ1-42 [10 μM]. The neuroprotective activity, in terms of increase in intracellular MTT granules, was measured by MTT assay, as previously described.

T2 sequence (P81908 whole entry): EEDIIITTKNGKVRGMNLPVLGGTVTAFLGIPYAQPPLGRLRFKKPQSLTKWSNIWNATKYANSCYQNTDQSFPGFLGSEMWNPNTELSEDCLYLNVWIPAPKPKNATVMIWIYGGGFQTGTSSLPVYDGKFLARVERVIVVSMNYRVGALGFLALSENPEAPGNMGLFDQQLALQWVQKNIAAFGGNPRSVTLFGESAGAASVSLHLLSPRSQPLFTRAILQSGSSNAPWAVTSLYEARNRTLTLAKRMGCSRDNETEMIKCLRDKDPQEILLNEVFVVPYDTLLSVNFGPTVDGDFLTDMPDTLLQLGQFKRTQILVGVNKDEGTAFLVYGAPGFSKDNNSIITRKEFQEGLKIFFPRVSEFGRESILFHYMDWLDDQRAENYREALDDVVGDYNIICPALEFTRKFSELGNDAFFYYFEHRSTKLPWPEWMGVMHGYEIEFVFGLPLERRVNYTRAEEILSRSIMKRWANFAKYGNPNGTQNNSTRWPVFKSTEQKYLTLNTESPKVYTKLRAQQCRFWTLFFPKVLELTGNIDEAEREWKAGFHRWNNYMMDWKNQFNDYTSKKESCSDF

As for `COc1cc(Cn2cc(C(=O)N/N=C/c3ccc(O)cc3)nn2)ccc1O` [3a, (E)-1-(4-Hydroxy-3-methoxybenzyl)-N’-(4-hydroxybenzylidene)-1H-1,2,3-triazole-4-carbohydrazide], in the data set with SH-SY5Y cells [1], the toxic effects result is “did not show any toxic effects” and the IC50 is greater than 80 µM. In addition, in the data set with SH-SY5Y cells [2], the inhibition at 10 µM worked out at 20.6% and the “Direct Antioxidant Activity in SH-SY5Y Cells (percentage inhibition of ROS formation induced by t-BOOH)” value is listed as “In ^d”. Further, in the data set on SH-SY5Y cells [3], the “effect on intracellular GSH levels” value is recorded as “increased the GSH levels”.

In the case of `COc1cc(Cn2cc(C(=O)N/N=C/c3cc(O)cc(O)c3)nn2)ccc1O` [3b, (E)-N’-(3,5-Dihydroxybenzylidene)-1-(4-hydroxy-3-methoxybenzyl)-1H-1,2,3-triazole-4-carbohydrazide], in the data set with SH-SY5Y cells [1], the toxic effects entry was “did not show any toxic effects” and the IC50 was greater than 80 µM. Moreover, in the data set on SH-SY5Y cells [2], the inhibition at 10 µM came to 14.1% and the “Direct Antioxidant Activity in SH-SY5Y Cells (percentage inhibition of ROS formation induced by t-BOOH)” value was “In”. Also, the “effect on intracellular GSH levels” value with SH-SY5Y cells [3] is “increased the GSH levels”.

Take `COc1ccc(/C=N/NC(=O)c2cn(Cc3ccc(O)c(OC)c3)nn2)cc1` [3c, (E)-1-(4-Hydroxy-3-methoxybenzyl)-N’-(4-methoxybenzylidene)-1H-1,2,3-triazole-4-carbohydrazide]: in the data set on SH-SY5Y cells [1], the IC50 stood at 10.3 µM.

With `COc1cc(/C=N/NC(=O)c2cn(Cc3ccc(O)c(OC)c3)nn2)cc(OC)c1` [3d, (E)-N’-(3,5-Dimethoxybenzylidene)-1-(4-hydroxy-3-methoxybenzyl)-1H-1,2,3-triazole-4-carbohydrazide], the IC50 with SH-SY5Y cells [1] was 67.7 µM.

Compound `COc1cc(/C=N/NC(=O)c2cn(Cc3ccc(O)c(OC)c3)nn2)ccc1O` [3e, (E)-1-(4-Hydroxy-3-methoxybenzyl)-N’-(4-hydroxy-3-methoxybenzylidene)-1H-1,2,3-triazole-4-carbo-hydrazide] came in with an IC50 against EeAChE of 26.3 µM. Moreover, the inhibition at 30 µM at EeAChE (read-out: inhibition of the AChE activity at the screening concentration) was greater than 50%. Moreover, at eqBuChE, the “ability to inhibit BuChE” value is “no relevant activity was detected”. Besides, in the data set on SH-SY5Y cells [1], the toxic effects result is “did not show any toxic effects” and the IC50 is greater than 80 µM. Moreover, the inhibition at 10 µM in the data set on SH-SY5Y cells [2] was 35.2%. Also, the “effect on intracellular GSH levels” value in the data set on SH-SY5Y cells [3] is “increased the GSH levels”. For the same compound, in the data set on SH-SY5Y cells [4], the “effect on loss of neuronal viability induced by OAβ42” value is “significantly reduced the loss of neuronal viability”.

For the compound `COc1cc(Cn2cc(C(=O)N/N=C/c3ccccc3)nn2)ccc1O` [3f, (E)-N’-Benzylidene-1-(4-hydroxy-3-methoxybenzyl)-1H-1,2,3-triazole-4-carbohydrazide], in the data set with SH-SY5Y cells [1], the IC50 was 63.8 µM.

For the compound `COc1cc(Cn2cc(C(=O)N/N=C/c3ccc(N4CCCCC4)cc3)nn2)ccc1O` [3g, (E)-1-(4-Hydroxy-3-methoxybenzyl)-N’-(4-(piperidin-1-yl)benzylidene)-1H-1,2,3-triazole-4-carbohydrazide], the IC50 in the data set with SH-SY5Y cells [1] amounted to 10.3 µM.

With `COc1cc(Cn2cc(C(=O)N/N=C/c3ccc(Cl)cc3)nn2)ccc1O` [3h, (E)-N’-(4-Chlorobenzylidene)-1-(4-hydroxy-3-methoxybenzyl)-1H-1,2,3-triazole-4-carbohydrazide], the IC50 in the data set on SH-SY5Y cells [1] is 3.02 µM.

With `COc1cc(Cn2cc(C(=O)N/N=C/c3cccc(Cl)c3)nn2)ccc1O` [3i, (E)-N’-(3-Chlorobenzylidene)-1-(4-hydroxy-3-methoxybenzyl)-1H-1,2,3-triazole-4-carbohydrazide], in the data set on SH-SY5Y cells [1], the IC50 came out at 10.4 µM.

`COc1cc(Cn2cc(C(=O)N/N=C/c3ccccc3Cl)nn2)ccc1O` [3j, (E)-N’-(2-Chlorobenzylidene)-1-(4-hydroxy-3-methoxybenzyl)-1H-1,2,3-triazole-4-carbohydrazide]: in the data set with SH-SY5Y cells [1], the IC50 is 28.3 µM.

With `COc1cc(Cn2cc(C(=O)N/N=C/c3ccc(F)cc3)nn2)ccc1O` [3k, (E)-N’-(4-Fluorobenzylidene)-1-(4-hydroxy-3-methoxybenzyl)-1H-1,2,3-triazole-4-carbohydrazide], the IC50 in the data set with SH-SY5Y cells [1] is 3.62 µM.

In the case of `COc1cc(Cn2cc(C(=O)N/N=C/c3ccccc3F)nn2)ccc1O` [3l, (E)-N’-(2-Fluorobenzylidene)-1-(4-hydroxy-3-methoxybenzyl)-1H-1,2,3-triazole-4-carbohydrazide], in the data set on SH-SY5Y cells [1], the IC50 is 68.5 µM.

Take `COc1cc(Cn2cc(C(=O)N/N=C/c3cccc(F)c3)nn2)ccc1O` [3m, (E)-N’-(3-Fluorobenzylidene)-1-(4-hydroxy-3-methoxybenzyl)-1H-1,2,3-triazole-4-carbohydrazide]: in the data set on SH-SY5Y cells [1], the IC50 was determined as 42.9 µM.
